Data: US6316182A, “Detection of reverse transcriptase by DNA hybridization assay” (priority 1992, dated 2001)
Values joined by “and” are separate entries in the source; they are usually repeats but may differ in a detail not shown here. Identical values can stand only once. Like-named read-outs stand apart in the source and are kept apart here.

Legend:
[1] = test system: HIV-1 reverse transcriptase with valine for leucine at codon 74; details: valine for the wild-type leucine at codon 74; cited from earlier work
[2] = test system: AMV RT; assay: Heteropolymeric RNA template RT hybridization assay, inhibition of AMV RT (Example 3); type: biochemical, avian myeloblastosis virus; details: for Absorbance (450 nm-650 nm): no-drug absorbance 3.760
Protocol: (§1) 1. 10 μL of 1 N KOH was added to each tube and incubated at 37° C. for 15 minutes to hydrolyze the RNA.
(§2) 2. 10 μL of 1 N KH2 PO4 was added to each tube to neutralize the pH and […] of solution from each tube was transferred to a well of a streptavidin-coated microplate.
(§3) 3. 50 μL of the following solution was added to each well:
(§4) 4. The wells were covered with an adhesive plate cover and incubated at 37° C. for 2 hours.
(§5) 6. 100 μL of tetramethylbenzidine (TMB, SOMA) was added to each well and incubated for 1 hour at room temperature.
(§6) 7. 100 μL of TMB Stop Solution (SOMA) was added to each well and the absorbance (450 nm-650 nm) of the wells was read with a plate reader.
Same as described in Example 1 above.
AMV RT (Du Pont) was used as a model to illustrate use of the method of the present invention for detecting and/or quantitating the ability of a compound to inhibit RT activity. AMV RT was added to give tubes containing 40 μL of the following solution:
These reaction conditions were similar to those of Example 1 above except with respect to the addition of the inhibitor, the lower dNTP concentration (0.001 mM instead of 0.5 mM) and the increased amount of RT (200 mU instead of 5 mU). Reducing the dNTPs decreases the signal in the assay, but increasing the RT increases the signal. The reduced dNTP concentration helps to make the assay more sensitive to inhibitors which act competitively with the dNTPs and, thus, less inhibitor is needed to achieve the effect. By adding more inhibitor, the same results can be obtained at higher dNTP concentrations.
The tubes were incubated at 37° C. for 1 hour to allow the synthesis of cDNA.
Same as for Example 1 described above.

[3] = molecular target: T1, wild-type RT (Human immunodeficiency virus type 1 group M subtype B, UniProt P04585); assay: Heteropolymeric RNA template RT hybridization assay, inhibition of wild-type RT (Example 2); type: biochemical, HIV-1
T1 construct: Wild-type and mutant RT genes of these clones were subcloned into a bacterial expression vector (pKRT2); made in house; host or cells: E. coli
Protocol: (§7) A template RNA was synthesized by in vitro transcription from linearized pSP72 plasmid DNA by performing the following steps:
(§8) 2. In vitro transcription with T7 RNA polymerase was performed by 2 hour incubation at 37° C. of a solution containing 50 μg/mL of the linearized DNA, 400 units/mL T7 RNA polymerase, 40 mM Tris-HCl buffer, pH 8.0, 6 mM MgCl2, 2 mM spermidine, 10 mM NaCl, 10 mM DTT, 0.5 mM rATP, 0.5 mM rGTP, 0.5 mM rCTP and 0.5 mM rUTP.
(§9) The following DNA oligonucleotide was synthesized on a DNA synthesizer employing standard methods:
(§10) The following probe oligonucleotides were synthesized on a DNA synthesizer and conjugated with biotin or horseradish peroxidase (HRP) employing standard methods.
as §1, §2, §3, §4, §5, §6
(§11) In this example, RT was obtained from E. coli expression systems as described below and was added to each tube in sufficient amount to give a significant signal (about 1-2 absorbance units) in the absence of drug. The same amount of RT was added to each tube. Both a wild-type and a codon 74 (ddI-resistant) mutant RT were tested. Molecular clones were constructed by site-directed mutagenesis to contain a mutation at codon 74, 215, and/or 219. Mutants at codon 74 are resistant to ddI. Wild-type and mutant RT genes of these clones were subcloned into a bacterial expression vector (pKRT2). Bacterial lysates containing recombinant expressed RT, both wild-type and mutant, were made as previously described (D'Aquila, R. T. and Summers, W. C. (1989) JAIDS 2:579-587). The IC50 was determined by computerized estimation (Systat version 5.1) of the median-effect equation: fractional reduction=1/[1+(IC50/drug concentration)^m ]. Each IC50 is the mean of 5-10 experiments. Results of a one-tailed Mann-Whitney U test for the difference between mean wild-type and mutant IC50s: p<0.005.
(§12) An amount of ddATP (the active form of ddI) varying from 0.0005 to 0.250 mM was added to various tubes containing 40 μL of the following solution:
(§13) In this example, the dNTP concentrations were the same as described in Example 1 above.
(§14) These tubes were incubated at 37° C. for 1 hour to allow the synthesis of cDNA. […]

[4] = test system: triple mutant RT (74/215/219); assay: Heteropolymeric RNA template RT hybridization assay, inhibition of triple mutant RT 74/215/219 (Example 2); type: biochemical, HIV-1; details: 74/215/219 mutant RT; single determinations; read-out: IC50 (multiple determinations)
Protocol: as §11, §12, §13, §14

[5] = molecular target: T2, codon 74 (ddI-resistant) mutant RT (Human immunodeficiency virus type 1 group M subtype B, UniProt P04585, L661V); assay: Heteropolymeric RNA template RT hybridization assay, inhibition of codon 74 mutant RT (Example 2); type: biochemical, HIV-1
T2 construct: Wild-type and mutant RT genes of these clones were subcloned into a bacterial expression vector (pKRT2); made in house; host or cells: E. coli
Protocol: as §7, §8, §9, §10, §1, §2, §3, §4, §5, §6, §11, §12, §13, §14

[6] = test system: HIV-1 reverse transcriptase with codon 215 and/or codon 219 substitution; details: phenylalanine or tyrosine for threonine at codon 215, and/or glutamine for lysine at codon 219; cited from earlier work

Compound: O=c1[nH]cnc2c1ncn2[C@H]1CC[C@@H](CO)O1 [ddI]
- resistance of the RT to the drug [1]: leads to ddI resistance

Compound: Nc1ncnc2c1ncn2[C@H]1CC[C@@H](COP(=O)(O)OP(=O)(O)OP(=O)(O)O)O1 [ddATP]
- Absorbance (450 nm-650 nm) ([2]; ddATP 0.0001 mM): 3.593
- Absorbance (450 nm-650 nm) ([2]; ddATP 0.00025 mM): 2.984
- Absorbance (450 nm-650 nm) ([2]; ddATP 0.0005 mM): 2.079
- Absorbance (450 nm-650 nm) ([2]; ddATP 0.0010 mM): 1.365
- Absorbance (450 nm-650 nm) ([2]; ddATP 0.0025 mM): 0.350
- Absorbance (450 nm-650 nm) ([2]; ddATP 0.0050 mM): 0.197
- Absorbance (450 nm-650 nm) ([2]; ddATP 0.0100 mM): 0.224
- IC50 ([3]; 10 cases, 0.5 mM dNTPs, read-out: Maximum (IC50)): 8.7 µM
- IC50 ([3]; 10 cases, 0.5 mM dNTPs, read-out: Minimum (IC50)): 3.1 µM
- IC50 ([3]; mean of 10 cases, 0.5 mM dNTPs, wild-type vs mutant p<0.005, read-out: Mean (IC50)): 6.79 µM
- IC50 ([3]; single determinations, read-out: IC50 (multiple determinations)): 8.6 µM and 6.7 µM and 7.8 µM and 4.9 µM and 5.7 µM
- IC50 [4]: 79.3 µM
- IC50 ([5]; 74 mutant RT, single determinations, read-out: IC50 (multiple determinations)): 13.2 µM and 16.6 µM and 13.4 µM
- IC50 ([5]; Mutant 74 RT, 5 cases, 0.5 mM dNTPs, read-out: Maximum (IC50)): 29.4 µM
- IC50 ([5]; Mutant 74 RT, 5 cases, 0.5 mM dNTPs, read-out: Minimum (IC50)): 11.1 µM
- IC50 ([5]; Mutant 74 RT, mean of 5 cases, 0.5 mM dNTPs, wild-type vs mutant p<0.005, read-out: Mean (IC50)): 16.9 µM

Compound: Cc1cn([C@H]2C[C@H](N=[N+]=[N-])[C@@H](CO)O2)c(=O)[nH]c1=O [AZT, zidovudine]
- resistance of the RT to the drug [6]: leads to resistance to AZT

Compound: O=C(O)P(=O)(O)O [fosgarnet]
- inhibition detected and/or quantitated ([2]; similar experiment, non-nucleoside RT inhibitor): could also be detected and/or quantitated
